Assay results: patent US9815802B2, “Herbicidally active N-(1-methyltetrazol-5-yl)benzoic acid amides” (BAYER CROPSCIENCE AKTIENGESELLSCHAFT, priority 2014, dated 2017)

Assays:
Format in all cases: in vivo
Setaria viridis [1] = test: Pre-emergence herbicidal action against SETVI
Text: (§1) Pre-Emergence Herbicidal Action Against Harmful Plants
(§2) Seeds of monocotyledonous and dicotyledonous weed plants and crop plants are laid out in wood-fiber pots in sandy loam and covered with soil. The compounds of the invention, formulated in the form of wettable powders (WP) or as emulsion concentrates (EC), are then applied to the surface of the covering soil in the form of an aqueous suspension or emulsion at a water application rate equating to 600 to 800 I/ha, with addition of 0.2% wetting agent. After the treatment, the pots are placed in a greenhouse and kept under good growth conditions for the trial plants. The damage to the test plants is scored visually after a test period of 3 weeks by comparison with untreated controls (herbicidal activity in percent (%): 100% activity=the plants have died, 0% activity=like control plants). For example, compounds no. 1-001, 1-002, 1-003, 1-004, 1-011, 1-012, 1-021, 1-022, 1-031, 1-032, 1-041, 1-042 and 1-044 at an application rate of 320 g/ha each have at least 80% efficacy against Echinocloa crusgalli, Abutilon theophrasti, Amaranthus retroflexus and Matricaria inodora.

Stellaria media [2] = test: Pre-emergence herbicidal action against STEME
Text: as §1, §2

Avena fatua [3] = test: Post-emergence herbicidal action against AVEFA
Protocol: (§3) Post-Emergence Herbicidal Action Against Harmful Plants Seeds of monocotyledonous and dicotyledonous weed and crop plants are laid out in sandy loam in wood-fiber pots, covered with soil and cultivated in a greenhouse under good growth conditions. 2 to 3 weeks after sowing, the test plants are treated at the one-leaf stage. The compounds of the invention, formulated in the form of wettable powders (WP) or as emulsion concentrates (EC), are then sprayed onto the green parts of the plants in the form of an aqueous suspension or emulsion at a water application rate equating to 600 to 800 I/ha, with addition of 0.2% wetting agent. After the test plants have been left to stand in the greenhouse under optimal growth conditions for about 3 weeks, the action of the preparations is assessed visually in comparison to untreated controls (herbicidal action in percent (%): 100% activity=the plants have died, 0% activity=like control plants).

Alopecurus myosuroides = test: Post-emergence herbicidal action against ALOMY
Protocol: as §3

Stellaria media [4] = test: Post-emergence herbicidal action against STEME; settings: dosage 5 g/ha
Protocol: as §3

Setaria viridis [5] = test: Post-emergence herbicidal action against SETVI; settings: dosage 5 g/ha
Protocol: as §3

Polygonum convolvulus [6] = test: Post-emergence herbicidal action against POLCO
Protocol: as §3

Avena fatua [7] = test: Pre-emergence herbicidal action against AVEFA; settings: dosage 320 g/ha
Text: as §1, §2

Pharbitis purpureum = test: Pre-emergence herbicidal action against PHBPU; settings: dosage 320 g/ha
Text: as §1, §2

Polygonum convolvulus [8] = test: Pre-emergence herbicidal action against POLCO; settings: dosage 320 g/ha
Text: as §1, §2

## COSc1c(C)ccc(C(=O)Nc2nnnn2C)c1I
Setaria viridis [1]; dosage 320 g/ha
  Activity against SETVI: 30%
Stellaria media [2]; dosage 320 g/ha
  Activity against STEME: 70%

## COSc1c(C)ccc(C(=O)Nc2nnnn2C)c1OC
Setaria viridis [1]; dosage 320 g/ha
  Activity against SETVI: 40%
Stellaria media [2]; dosage 320 g/ha
  Activity against STEME: 60%

## COSc1c(C=O)ccc(C(=O)Nc2nnnn2C)c1C
Setaria viridis [1]; dosage 320 g/ha
  Activity against SETVI: 0%
Stellaria media [2]; dosage 320 g/ha
  Activity against STEME: 0%

## CCOSc1c(C)ccc(C(=O)Nc2nnnn2C)c1C
Avena fatua [3]; dosage 80 g/ha
  Activity against AVEFA: 100%
Alopecurus myosuroides; dosage 80 g/ha
  Activity against ALOMY: 90%

## CCc1ccc(C(=O)Nc2nnnn2C)c(C)c1SOC
Stellaria media [4]
  Activity against STEME: 100%
Setaria viridis [5]
  Activity against SETVI: 100%

## COSc1c(C(C)C)ccc(C(=O)Nc2nnnn2C)c1C
Avena fatua [3]; dosage 5 g/ha
  Activity against AVEFA: 40%
Alopecurus myosuroides; dosage 5 g/ha
  Activity against ALOMY: 60%

## Cc1c(C(=O)Nc2nnnn2C)ccc(C(C)C)c1S(C)(=O)=O
Avena fatua [3]; Table S, dosage 5 g/ha
  Activity against AVEFA: 30%
Alopecurus myosuroides; Table S, dosage 5 g/ha
  Activity against ALOMY: 60%

## Cc1c(C(=O)Nc2nnnn2C)ccc(I)c1S(C)(=O)=O
Avena fatua [3]; Table S, dosage 5 g/ha
  Activity against AVEFA: 0%
Alopecurus myosuroides; Table S, dosage 5 g/ha
  Activity against ALOMY: 20%

## Cc1c(C(=O)Nc2nnnn2C)ccc(C(F)(F)F)c1S(C)(=O)=O
Avena fatua [3]; Table S, dosage 5 g/ha
  Activity against AVEFA: 0%
Alopecurus myosuroides; Table S, dosage 5 g/ha
  Activity against ALOMY: 30%

## CCc1c(C(=O)Nc2nnnn2C)ccc(Cl)c1SOC
Polygonum convolvulus [6]; Table V, dosage 5 g/ha
  Activity against POLCO: 20%

## CCc1c(C(=O)Nc2nnnn2C)ccc(Br)c1S(C)(=O)=O
Polygonum convolvulus [6]; Table W, dosage 20 g/ha
  Activity against POLCO: 40%

## CCOSc1c(C(F)(F)F)ccc(C(=O)Nc2nnnn2C)c1CC
Polygonum convolvulus [6]; Table X, dosage 20 g/ha
  Activity against POLCO: 20%

## CCc1ccc(C(=O)Nc2nnnn2C)c(CC)c1S(=O)(=O)CC
Polygonum convolvulus [6]; Table Y, dosage 20 g/ha
  Activity against POLCO: 100%

## CCc1c(C(=O)Nc2nnnn2C)ccc(C(F)(F)F)c1S(=O)(=O)CC
Polygonum convolvulus [6]; Table Y, dosage 20 g/ha
  Activity against POLCO: 80%

## Cc1ccc(C(=O)Nc2nnnn2C)c(C)c1[S+](C)[O-] (centres unmarked) [1-001, 2,4-Dimethyl-3-(methylsulfinyl)-N-(1-methyl-1H-tetrazol-5-yl)benzamide]
Setaria viridis [1]; dosage 320 g/ha
  Activity against SETVI: 100%
Stellaria media [2]; dosage 320 g/ha
  Activity against STEME: 90%

## CCS(=O)(=O)c1c(C)ccc(C(=O)Nc2nnnn2C)c1C [1-004]
Avena fatua [7]
  Activity against AVEFA: 90%
Pharbitis purpureum
  Activity against PHBPU: 80%

## CCc1ccc(C(=O)Nc2nnnn2C)c(C)c1S(C)(=O)=O [1-012]
Setaria viridis [1]; dosage 80 g/ha
  Activity against SETVI: 100%
Stellaria media [2]; dosage 80 g/ha
  Activity against STEME: 90%

## CCc1c(C(=O)Nc2nnnn2C)ccc(C)c1S(C)(=O)=O [1-032]
Avena fatua [7]
  Activity against AVEFA: 80%
Pharbitis purpureum
  Activity against PHBPU: 80%

## CCc1ccc(C(=O)Nc2nnnn2C)c(CC)c1[S+](C)[O-] (centres unmarked) [1-041]
Pharbitis purpureum
  Activity against PHBPU: 80%
Polygonum convolvulus [8]
  Activity against POLCO: 80%

## CCc1ccc(C(=O)Nc2nnnn2C)c(CC)c1S(C)(=O)=O [1-042]
Pharbitis purpureum
  Activity against PHBPU: 100%
Polygonum convolvulus [8]
  Activity against POLCO: 100%

## Cc1c(C(=O)Nc2nnnn2C)cccc1S(C)(=O)=O [4-080]
Setaria viridis [1]; dosage 80 g/ha
  Activity against SETVI: 20%
Stellaria media [2]; dosage 80 g/ha
  Activity against STEME: 50%

## CCc1c(C(=O)Nc2nnnn2C)ccc(Cl)c1S(C)(=O)=O [4-192, reference compound]
Pharbitis purpureum
  Activity against PHBPU: 80%
Polygonum convolvulus [8]
  Activity against POLCO: 60%

## COc1ccc(C(=O)Nc2nnnn2C)c(C)c1S(C)(=O)=O [4-439]
Setaria viridis [1]; dosage 80 g/ha
  Activity against SETVI: 0%
Stellaria media [2]; dosage 80 g/ha
  Activity against STEME: 70%
Avena fatua [7]
  Activity against AVEFA: 50%
Pharbitis purpureum
  Activity against PHBPU: 60%

## CCc1c(C(=O)Nc2nnnn2C)ccc(Br)c1SOC [4-503, reference compound]
Pharbitis purpureum
  Activity against PHBPU: 50%
Polygonum convolvulus [8]
  Activity against POLCO: 60%

## Cc1ccc(C(=O)Nc2nnnn2C)c(I)c1S(C)(=O)=O [4-791]
Avena fatua [7]
  Activity against AVEFA: 0%
Pharbitis purpureum
  Activity against PHBPU: 30%

## CCS(=O)(=O)c1c(C)ccc(C(=O)Nc2nnnn2C)c1I [4-794]
Avena fatua [7]
  Activity against AVEFA: 10%
Pharbitis purpureum
  Activity against PHBPU: 60%

## COSc1c(C)ccc(C(=O)Nc2nnnn2C)c1[N+](=O)[O-] [4-796]
Setaria viridis [1]; dosage 320 g/ha
  Activity against SETVI: 0%
Stellaria media [2]; dosage 320 g/ha
  Activity against STEME: 50%

## Cc1ccc(C(=O)Nc2nnnn2C)c([N+](=O)[O-])c1S(C)(=O)=O [4-797]
Avena fatua [7]
  Activity against AVEFA: 0%
Pharbitis purpureum
  Activity against PHBPU: 0%
